The conditions of data set [1]: literature; cited from earlier work.
A further data set is described as follows: Teratogenic activity. The conditions noted are these: in vivo. The source says:
Nau, H. et al., Pharmacol. & Toxicol. (1991) 69:310-321.

The test system of data set [2] is neuro-2a neuroblastoma cells. Description: Neurite outgrowth / differentiation, scanning electron microscopy. Type of data set: cell-based, mouse. The conditions noted are these: for neurite outgrowth: 48 hours. How it is done: Neuroblastoma cells were cultured in the presence of 2-n-butyl-4-pentynoic acid (1.0 mM, 2 mM); and 2-n-pentyl-pentynoic acid (0.3 mM, 0.5 mM). Test medium was added to cells after 24 hours in culture and maintained as a test medium for 48 hours after which they were fixed in 2.5% glutaraldehyde and […] sodium phosphate buffer overnight at 4° C. Cells were postfixed with osmium tetroxide and prepared for scanning microscopy as described.
The neurotrophic activity associated with valproate and its analogues may be determined based on in vitro indices of differentiation, including inhibition of mitosis, increase in neurite outgrowth, and NCAM expression. For example, the ability to promote neurite outgrowth is correlated with enhanced survival of certain cultured neural cells including embryonic sensory and sympathetic neurons. Proliferating immature neuroblasts, in vitro, have a rounded shape and are loosely adherent to culture surfaces. In the presence of a neurotrophic factor, these cells become more adherent and sprout processes known in the art as neurites. Accordingly, in vitro neurite outgrowth may be used as an assay for determining concentrations of compound in contact with target cells which would be expected to achieve desirable neuroprotecting effects.
Cells which were to be examined by scanning electron microscopy were grown as previously described in 25cm^2 flasks. Following 48 h exposure to the agent, cells were fixed in a solution of 2.5% glutaraldehyde in 0.1M sodium phosphate buffer, pH 7.4, overnight at 4° C. The cells were post-fixed subsequently in phosphate-buffered 1% osmium tetroxide for 1 h at room temperature, washed and were dehydrated gradually for 1 hour using a series of ethanol concentrations stepwise from 20, 40, 60, 80 to a final concentration 100%.
Sections of the base of the tissue culture flask were removed and were critical point dried to minimize shrinkage and cracking. This was achieved by placing the samples in a Polaron critical point dryer and purging the chamber several times with CO2 to remove all traces of ethanol. After 1 h the temperature and pressure were increased to 40° C. and 1200 lbs/in^2, respectively, at which stage the critical point for carbon dioxide had been reached and drying was completed.
Specimens were subsequently removed from the chamber, mounted on stubs suitable for scanning electron microscopy using conductive carbon cement (Neubauer) and were sputter coated with gold under vacuum (5×10^−2 torr) in the presence of argon gas at a current of 20 mA for 3 minutes (Polaron E5100). Following gold-coating, samples were examined in the scanning electron microscope (JEOL 35C) at an accelerating voltage of 15 kV.

The subject of data set [3] is mouse neuro-2a neuroblastoma cells. The data set can be described thus: Antiproliferative assay, cell counting after 48 h. Type of data set: cell-based. How it is done:
Neuro-2a neuroblastoma cells were cultured in 25 cm^2 flasks for 48 hours in the presence of test medium. After 48 hours, cells were observed, photographed and harvested with trypsin for counting using a haemocytometer. Cell number is expressed as percentage mean±SEM (n=3) of control values.
Accordingly, representative cells may be cultured in vitro in the presence of varying concentration of test compound. At an appropriate time, the cells under the different conditions are examined for the appropriate parameter (for example, cell number for antimitotic activity; neurite outgrowth for neurotrophic activity) and the ED50 may be determined.
Antiproliferative and neuroprotective actions should be sufficient to achieve the desired inhibition of mitosis or neuroprotection without serious hetaptotoxic side effects. […] Dose response curves may be determined first in vitro in a relevant animal model to determine ranges of expected therapeutic concentrations in humans. […] Other cell lines, including those of human origin may be used to assesses activity as well.
The mouse neuro-2a neuroblastoma cell line (Klebe and Ruddle, 1969 J. Cell Biol., 43:69A) was cultured in Dulbecco's modified Eagle's medium (DMEM; Flow Laboratories) supplemented with 10% fetal bovine serum (Tissue Culture Services), […] glutamine and 100 μg/ml of gentamicin or 100 units/ml and 100 μg/ml of penicillin/streptomycin antibiotics (Sigma Chemicals). The cells were maintained in a water-humidified atmosphere of 9% CO2at 37° C. Cells were passaged using 0.025% trypsin (Gibco) in DMEM, and were seeded at a density of 1×10^4 cells/cm^2.
Neuro-2a cells were seeded in 25cm^2 flasks (Costar) at a density of 1×10^4 cells/cm^2. Following a recovery period of 24 h, the agent to be examined was added to the cells in a vehicle of dimethyl sulphoxide (DMSO), the volume of which was 0.2% of the total volume of medium bathing the cells. A flask containing the DMSO vehicle alone was employed as control. Following incubation for 48h, cells were examined using an inverted phase contrast microscope (Leitz Diavert) and photographed (Ilford 50ASA film). Cells were then harvested by trypsinization and were counted using a haemocytometer (improved Neubauer model).

Data set [4] relates to neural derived cell proliferation. The conditions noted are these: literature; cited from earlier work.
Data set [5] concerns Neural Cell Adhesion Molecule (NCAM) in neuro-2a neuroblastoma cells. Description: NCAM immunofluorescence microscopy. Format: cell-based, mouse. The settings on record: 1.0 mm; compared to control cells. How it is done:
FIGS. 3A-1, 3A-2 and 3B: Neural Cell Adhesion Molecule (NCAM) immunofluorescence in neuro-2a neuroblastoma cells. […] Panel B. Neuroblastoma cells were cultured for 48 hours in the presence of increasing concentrations of 2-n-butyl-4-pentynoic acid and 2-n-pentyl-4-pentynoic acid. They were then fixed and prepared for staining with rabbit anti-NCAM antibody. A second anti-rabbit antibody conjugated to rhodamine was incubated with the cells to detect bound anti-NCAM antibody. […] Immunofluorescence is expressed as mean +/− SEM.
Cells were seeded in 24-well plates at a density of 1×10^4 cells/cm^2. Following a recovery period 24 h they were exposed for an additional 48 h to the drug under investigation. […] The cells were again washed three times with phosphate buffered saline pH 7.4 and were then mounted using Citifluor (Agar Scientific) containing a fluorescence enhancer. Fluorescence of rhodamine was visualized using an excitatory wavelength of 535 nm (Leica filter block N2.1) on a Leitz DMRB fluorescence microscope. Fluorescence intensity was examined at points of cell-cell contact using a Quantimet 500 Image Analysis System. Fluorescence intensity is expressed as grey level at points of cell contact relative to that observed in the control.

For data set [6] the following is noted: human; literature; cited from earlier work.
The conditions of data set [7]: experimental models; literature; cited from earlier work.

Turning to `C#CCC(CCC)C(=O)O` (stereo not drawn) [2-n-propyl-4-pentynoic acid], the “teratogenic potency of S-enantiomer relative to R-enantiomer” value in data set [1] is on record as “more potent”. Besides, in the data set “Teratogenic activity”, the teratogenic potency entry is recorded as “most potent”.
Take `C#CCC(CC(C)C)C(=O)O` (stereo not drawn): in data set [2], the prodifferentiative potency result is reported as “low”. The “antiproliferative potency / activity” value in data set [3] is listed as “low”. Further, the teratogenic potency entry in the data set “Teratogenic activity” is “low”.
As to `CCCC(CCC)C(N)=O` [valpromide], in data set [4], the antiproliferative action result is “not antiproliferative”. In addition, the teratogenic activities result in data set [1] is “non-teratogenic”.
Take `C#CCC(CCCCC)C(=O)O` (stereo not drawn) [2-n-pentyl-4-pentynoic acid]: the neurite outgrowth entry in data set [2] (0.3 mM, 0.5 mM) is recorded as “Induction of neurite outgrowth”. For the same compound, the “immunofluorescence directed against NCAM” value in data set [5] is “increased immunofluorescence”. Further, the teratogenic potency result in “Teratogenic activity” was “most potent”.
Take `C#CC[C@H](CCC)C(=O)O` [S-2-n-propyl-4-pentynoic acid]: the “teratogenic potency of S-enantiomer relative to R-enantiomer” value in data set [1] was “significantly greater”.
Turning to `C#CCC(CCCCCC)C(=O)O` (racemic) [2-n-hexyl-4-pentynoic acid, (±)-2-(2-propinyl)-Octanoic acid], the teratogenic potency entry in the data set “Teratogenic activity” is “most potent”.
Take `CCCC(CCC)C(=O)O` [valproate, valproic acid]: the antiproliferative action result in data set [4] is “potently inhibit”. Moreover, the “transfer into the central nervous system” value in data set [6] was “very limited”.
Consider `C/C=C\CC(CCC)C(=O)O` (stereo not drawn) [V], for which the cellular neurotrophic activity entry in data set [2] is listed as “lowers, but does not abolish”. Moreover, in data set [3], the “antiproliferative potency / activity” value is given as “lowers, but does not abolish”.
In the case of `C=CCC(CCC)C(=O)O` (stereo not drawn) [Example 4-en-VPA, 2-n-propyl-4-pentenoic acid], the “teratogenic potency of S-enantiomer relative to R-enantiomer” value in data set [1] is recorded as “more potent”.
As for `CC#CCC(CCC)C(=O)O` (stereo not drawn) [VI], the cellular neurotrophic activity result in data set [2] was “lowers, but does not abolish”. Further, the “antiproliferative potency / activity” value in data set [3] is recorded as “lowers, but does not abolish”. The anticonvulsant properties entry in data set [7] was “good”. For the same compound, in data set [1], the teratogenic activities result is recorded as “very low or undetectable”.
Turning to `CC/C=C(\CCC)C(=O)O` [IV], the cellular neurotrophic activity result in data set [2] is recorded as “lowers, but does not abolish”. Besides, the “antiproliferative potency / activity” value in data set [3] is “lowers, but does not abolish”. Besides, in data set [7], the anticonvulsant properties result is “good”. Further, the teratogenic activities result in data set [1] is reported as “very low or undetectable”.
Regarding `C#CCC(CCCC)C(=O)O` (stereo not drawn) [2-n-butyl-4-pentynoic acid], the neurite outgrowth entry in data set [2] (1.0 mM, 2 mM) was “Induction of neurite outgrowth”. The teratogenic potency result in the data set “Teratogenic activity” was “most potent”.

The record behind these values is patent USRE37670E1, “Antiproliferative and neurotrophic molecules” (American Biogenetics Inc., priority 1994, dated 2002).
